Results on 25 compounds are retold here after patent US20200079758A1, “[4-(PHENYLSULFONYL)PIPERAZIN-1-YL](1H-1,2,3-TRIAZOL-4-YL)METHANONES” (priority 2016, published 2020).

For orientation: IC50 means the concentration at which inhibition is half-maximal.

The assay deals with T1, recombinant human AKR1C3 (Homo sapiens, UniProt P42330).
T1 construct: GST (cleaved yes); made in house; host or cells: E. coli
T1 sequence (P42330 1-323): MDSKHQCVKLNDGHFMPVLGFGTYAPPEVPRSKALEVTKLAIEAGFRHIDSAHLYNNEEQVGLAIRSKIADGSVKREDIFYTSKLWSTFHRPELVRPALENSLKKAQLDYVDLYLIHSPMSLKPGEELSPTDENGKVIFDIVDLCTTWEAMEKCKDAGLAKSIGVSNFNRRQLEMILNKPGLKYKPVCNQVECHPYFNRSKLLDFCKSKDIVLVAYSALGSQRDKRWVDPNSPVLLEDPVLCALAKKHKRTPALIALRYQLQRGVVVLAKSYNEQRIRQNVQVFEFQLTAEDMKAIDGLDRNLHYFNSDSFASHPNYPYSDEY
Briefly: AKR1C3-inhibitory activity assay (generation of Coumberol from Coumberone). It counts as biochemical. As to conditions: Coumberone 0.3 μM, NADPH 10 μM, 22° C., typically 90 min, average or median values. On the procedure:
The AKR1C3-inhibitory activity of the substances of the present invention was measured in the AKR1C3 assay described in the paragraphs below.
Essentially, the enzyme activity is measured by quantification of the generation of Coumberol from Coumberone (Halim et al. J. AM. CHEM. SOC. 2008, 130:14123-14128 and Yee et al. Proc. Natl. Acad. Sci. USA 2006, 103:13304-13309). In this test, the increase of the highly fluorescent Coumberol by NADPH- (nicotinamide adenine dinucleotide phosphate)-dependent reduction of the non-fluorescent Coumberone by AKR1C3 was determined.
The enzyme used was recombinant human AKR1C3 (Aldo-keto reductase family 1 member C3; GenBank Accession No. NM_003739). This was expressed in E. coli as GST (glutathione S transferase) fusion protein and purified by glutathione Sepharose affinity chromatography. The GST was removed by digestion with thrombin and subsequent size exclusion chromatography (Dufort, I., Rheault, P., Huang, X F., Soucy, P., and Luu-The, V., Endocrinology 140, 568-574 (1999)).
For the assay, 50 nl of a 100-fold concentrated solution of the test substance in DMSO were pipetted into a black low-volume 384-well microtiter plate (Greiner Bio-One, Frickenhausen, Germany), 2.5 μl of a solution of AKR1C3 in assay buffer [50 mM potassium phosphate buffer pH 7, 1 mM DTT, 0.0022% (w/v) Pluronic F-127, 0.01% BSA (w/v) and protease inhibitor cocktail (Complete, EDTA-free Protease Inhibitor Cocktail from Roche)] were added and the mixture was incubated for 15 min to allow pre-binding of the substances to the enzyme prior to the enzyme reaction. The enzyme reaction was then started by addition of 2.5 μl of a solution of NADPH (20 μM→final concentration in 5 μl of assay volume is 10 μM) and Coumberone (0.6 μM→final concentration in 5 μl of assay volume is 0.3 μM) in assay buffer, and the resulting mixture was incubated at 22° C. for the reaction time of typically 90 min. The concentration of the AKR1C3 and the reaction time was adapted to the respective activity of the enzyme preparation and adjusted such that the assay was carried out in the linear range. Typical AKR1C3 concentrations were in the region of 1 nM. The reaction was stopped by addition of 2.5 μl of a stop solution consisting of 3 μM EM-1404 as inhibitor (U.S. Pat. No. 6,541,463) in 50 mM HEPES pH7.5 (3 μM EM-1404→final concentration in 7.5 μl of assay volume is 1 μM). The fluorescence of the Coumberole was then measured at 520 nm (excitation at 380 nm) using a suitable measuring instrument (Pherastar from BMG Labtechnologies). The intensity of the fluorescence was used as a measure of the amount of Coumberole formed and thus of the enzyme activity of AKR1C3. The data were normalized (enzyme reaction without inhibitor=0% inhibition; all other assay components, but no enzyme=100% inhibition).
`C[C@@H]1CN(C(=O)c2c[nH]nn2)[C@@H](C)CN1S(=O)(=O)c1cccc(C(F)(F)F)c1` [Example 12, [(2S,5R)-2,5-dimethyl-4-{[3-(trifluoromethyl)phenyl]sulfonyl}piperazin-1-yl](1H-1,2,3-triazol-4-yl)methanone]: the IC50 stood at 1 nM.

For the compound `C[C@@H]1CN(C(=O)c2cnn[nH]2)[C@@H](C)CN1S(=O)(=O)c1ccccc1Cl` [Example 73, {(2S,5R)-4-[(2-chlorophenyl)sulfonyl]-2,5-dimethylpiperazin-1-yl}(1H-1,2,3-triazol-5-yl)methanone], the IC50 was 1 nM. The result for `CC1(C)CN(C(=O)c2c[nH]nn2)CCN1S(=O)(=O)c1cc(Cl)cc(Cl)c1` [Example 26, {4-[(3,5-dichlorophenyl)sulfonyl]-3,3-dimethylpiperazin-1-yl}(1H-1,2,3-triazol-4-yl)methanone] reads 4 nM; that for `C[C@@H]1CN(C(=O)c2c[nH]nn2)[C@@H](C)CN1S(=O)(=O)c1cc(F)ccc1F` [Example 13, {(2S,5R)-4-[(2,5-difluorophenyl)sulfonyl]-2,5-dimethylpiperazin-1-yl}(1H-1,2,3-triazol-4-yl)methanone], 2 nM; that for `COc1cccc(S(=O)(=O)N2C[C@@H](C)N(C(=O)c3cnn[nH]3)[C@@H](C)C2)c1` [Example 108, {(2R,6S)-4-[(3-methoxyphenyl)sulfonyl]-2,6-dimethylpiperazin-1-yl}(1H-1,2,3-triazol-5-yl)methanone], 40 nM.

On to `C[C@@H]1CN(C(=O)c2cnn[nH]2)[C@@H](C)CN1S(=O)(=O)c1ccc(Cl)cc1` [Example 63, {(2S,5R)-4-[(4-chlorophenyl)sulfonyl]-2,5-dimethylpiperazin-1-yl}(1H-1,2,3-triazol-5-yl)methanone], for which the IC50 is 3 nM. The result for `C[C@@H]1CN(C(=O)c2c[nH]nn2)[C@@H](C)CN1S(=O)(=O)c1cccc(Cl)c1F` [Example 9, {(2S,5R)-4-[(3-chloro-2-fluorophenyl)sulfonyl]-2,5-dimethylpiperazin-1-yl}(1H-1,2,3-triazol-4-yl)methanone] reads 1 nM; that for `C[C@@H]1CN(C(=O)c2cnn[nH]2)[C@@H](C)CN1S(=O)(=O)c1cccc(C#N)c1` [Example 83, 3-{[(2R,5S)-2,5-dimethyl-4-(1H-1,2,3-triazol-5-ylcarbonyl)piperazin-1-yl]sulfonyl}benzonitrile], 3 nM. The result for `COc1cccc(S(=O)(=O)N2C[C@H](C)N(C(=O)c3cnn[nH]3)C[C@H]2C)c1` [Example 87, {(2S,5R)-4-[(3-methoxyphenyl)sulfonyl]-2,5-dimethylpiperazin-1-yl}(1H-1,2,3-triazol-5-yl)methanone] reads 2 nM; that for `C[C@@H]1CN(C(=O)c2cnn[nH]2)[C@@H](C)CN1S(=O)(=O)c1ccccc1OC(F)(F)F` [Example 72, [(2S,5R)-2,5-dimethyl-4-{[2-(trifluoromethoxy)phenyl]sulfonyl}piperazin-1-yl](1H-1,2,3-triazol-5-yl)methanone], 2 nM; that for `C[C@@H]1CN(C(=O)c2cnn[nH]2)[C@@H](C)CN1S(=O)(=O)c1ccc(F)c(Cl)c1` [Example 91, {(2S,5R)-4-[(3-chloro-4-fluorophenyl)sulfonyl]-2,5-dimethylpiperazin-1-yl}(1H-1,2,3-triazol-5-yl)methanone], 1 nM. The result for `C[C@@H]1CN(C(=O)c2c[nH]nn2)[C@@H](C)CN1S(=O)(=O)c1cccc(S(F)(F)(F)(F)F)c1` [Example 8, [(2S,5R)-2,5-dimethyl-4-{[3-(pentafluoro-λ^6-sulfanyl)phenyl]sulfonyl}piperazin-1-yl](1H-1,2,3-triazol-4-yl)methanone] reads 1 nM.

`C[C@@H]1CN(C(=O)c2cnn[nH]2)[C@@H](C)CN1S(=O)(=O)c1ccc(F)cc1` [Example 66, {(2S,5R)-4-[(4-fluorophenyl)sulfonyl]-2,5-dimethylpiperazin-1-yl}(1H-1,2,3-triazol-5-yl)methanone]: the IC50 was 4 nM. The result for `C[C@@H]1CN(C(=O)c2cnn[nH]2)[C@@H](C)CN1S(=O)(=O)c1ccc(Br)cc1` [Example 61, {(2S,5R)-4-[(4-bromophenyl)sulfonyl]-2,5-dimethylpiperazin-1-yl}(1H-1,2,3-triazol-5-yl)methanone] reads 4 nM; that for `CC1(C)CN(C(=O)c2cnn[nH]2)CCN1S(=O)(=O)c1c(F)cccc1F` [Example 35, {4-[(2,6-difluorophenyl)sulfonyl]-3,3-dimethylpiperazin-1-yl}(1H-1,2,3-triazol-5-yl)methanone], 46 nM; that for `Cc1ccccc1S(=O)(=O)N1CCN(C(=O)c2cnn[nH]2)CC1(C)C` [Example 31, {3,3-dimethyl-4-[(2-methylphenyl)sulfonyl]piperazin-1-yl}(1H-1,2,3-triazol-5-yl)methanone], 5 nM. `CC1(C)CN(C(=O)c2c[nH]nn2)CCN1S(=O)(=O)c1cc(Cl)ccc1Cl` [Example 25, {4-[(2,5-dichlorophenyl)sulfonyl]-3,3-dimethylpiperazin-1-yl}(1H-1,2,3-triazol-4-yl)methanone]: the IC50 amounted to 7 nM. The result for `COc1cc(F)ccc1S(=O)(=O)N1CCN(C(=O)c2cnn[nH]2)CC1(C)C` [Example 138, {4-[(4-fluoro-2-methoxyphenyl)sulfonyl]-3,3-dimethylpiperazin-1-yl}(1H-1,2,3-triazol-5-yl)methanone] reads 23 nM. The result for `CC1(C)CN(C(=O)c2cnn[nH]2)CCN1S(=O)(=O)c1cc(F)ccc1F` [Example 37, {4-[(2,5-difluorophenyl)sulfonyl]-3,3-dimethylpiperazin-1-yl}(1H-1,2,3-triazol-5-yl)methanone] reads 8 nM.

With `C[C@@H]1CN(S(=O)(=O)c2ccc(Br)cc2)C[C@H](C)N1C(=O)c1cnn[nH]1` [Example 93, {(2R,6S)-4-[(4-bromophenyl)sulfonyl]-2,6-dimethylpiperazin-1-yl}(1H-1,2,3-triazol-5-yl)methanone], the IC50 came out at 30 nM. As for `Cc1c(Cl)cccc1S(=O)(=O)N1C[C@H](C)N(C(=O)c2cnn[nH]2)C[C@H]1C` [Example 77, {(2S,5R)-4-[(3-chloro-2-methylphenyl)sulfonyl]-2,5-dimethylpiperazin-1-yl}(1H-1,2,3-triazol-5-yl)methanone], the figure is 2 nM; as for `Cc1c(Cl)cccc1S(=O)(=O)N1C[C@@H](C)N(C(=O)c2cnn[nH]2)[C@@H](C)C1` [Example 103, {(2R,6S)-4-[(3-chloro-2-methylphenyl)sulfonyl]-2,6-dimethylpiperazin-1-yl}(1H-1,2,3-triazol-5-yl)methanone], 2 nM; as for `COc1ccc(S(=O)(=O)N2CCN(C(=O)c3cnn[nH]3)CC2(C)C)cc1OC` [Example 118, {4-[(3,4-dimethoxyphenyl)sulfonyl]-3,3-dimethylpiperazin-1-yl}(1H-1,2,3-triazol-5-yl)methanone], 77 nM. Consider `C[C@@H]1CN(C(=O)c2cnn[nH]2)[C@@H](C)CN1S(=O)(=O)c1cccc(F)c1` [Example 7, sodium 5-({(2S,5R)-4-[(3-fluorophenyl)sulfonyl]-2,5-dimethylpiperazin-1-yl}carbonyl)-1,2,3-triazol-1-ide], for which the IC50 came to 1 nM. Take `CC1(C)CN(C(=O)c2cnn[nH]2)CCN1S(=O)(=O)c1cccc(Cl)c1Cl` [Example 119, {4-[(2,3-dichlorophenyl)sulfonyl]-3,3-dimethylpiperazin-1-yl}(1H-1,2,3-triazol-5-yl)methanone]: the IC50 turned out to be 9 nM.
